Patent US8003666B2, “Hydrate for medical purposes” (priority 2006, dated 2011)
Values after ≈ are worked out from the molar mass of the structure shown.

What was measured:
P. aeruginosa, 32121 = test: Antibacterial activity MIC, Japanese Society of Chemotherapy standard procedure; conditions: Pseudomonas aeruginosa
S. marscecens, 10100 = test: as above
S. epidermidis, 56500 = test: as above; conditions: Staphylococcus epidermidis
S. aureus, 209P = test: as above; conditions: Staphylococcus aureus
P. vulgaris, 08601 = test: as above; format: cell-based; conditions: Proteus vulgaris
S. aureus, 87037 = test: as above; conditions: Staphylococcus aureus
S. pneumoniae, J24 = test: as above; conditions: Streptococcus pneumoniae
E. faecalis, ATCC 19433 = test: as above; conditions: Enterococcus faecalis, ATCC19433
P. aeruginosa, 32104 = test: as above; conditions: Pseudomonas aeruginosa
E. coli NIHJ = test: as above; conditions: Escherichia coli
[1] = Change in moisture sorption and desorption after thermal dehydration; format: physicochemical; conditions: thermal dehydration (60° C.); FIG. 6
Protocol: Change in moisture sorption and desorption after thermal dehydration (60° C.) was examined for 7-[(7S)-7-amino-7-methyl-5-azaspiro[2.4]heptan-5-yl]-6-fluoro-1-[(1R,2S)-2-fluorocyclopropyl]-8-methoxy-1,4-dihydro-4-oxoquinoline-3-carboxylic acid hemihydrate obtained in Example 1.

E. coli E77156 strain = test: Therapeutic efficacy in rat simple cystitis model (E. coli); format: in vivo; conditions: orally once at 5, 20 and 80 mg/kg on the next day of infection, in comparison with the count at beginning of the treatment, FIG. 2
[2] = Crystal stability on storage at controlled relative humidity; format: physicochemical; conditions: 25° C., 3 days
Protocol: Weight change and crystalline form were examined as to 7-[(7S)-7-amino-7-methyl-5-azaspiro[2.4]heptan-5-yl-6-fluoro-1-[(1R,2S)-2-fluorocyclopropyl]-8-methoxy-1,4-dihydro-4-oxoquinoline-3-carboxylic acid hemihydrate obtained in Example 1 by being stored under the condition of 0, 52 or 93% of relative humidity, at 25° C. for 3 days. The crystalline form was evaluated by measuring with powder X-ray diffraction and thermal analysis.

[3] = format: physicochemical
Protocol: 7-[(7S)-7-amino-7-methyl-5-azaspiro[2.4]heptan-5-yl]-6-fluoro-1-[(1R,2S)-2-fluorocyclopropyl]-8-methoxy-1,4-dihydro-4-oxoquinoline-3-carboxylic acid hemihydrate obtained in Example 1 was each stored for 2 weeks under wet heat condition (40° C., 75% RH), dry heat condition (50° C., of 0% RH) and photo irradiation condition.

[4] = test system: Mycobacterium tuberculosis (sensitive bacteria); test: Anti-mycobacterium tuberculosis activity MIC, sensitive bacteria; format: cell-based
[5] = Change in crystalline form after thermal dehydration; format: physicochemical; conditions: X-ray diffraction on thermal treatments; FIG. 7
Source text: Change in crystalline form by thermal treatment was examined for 7-[(7S)-7-amino-7-methyl-5-azaspiro[2.4]heptan-5-yl]-6-fluoro-1-[(1R,2S)-2-fluorocyclopropyl]-8-methoxy-1,4-dihydro-4-oxoquinoline-3-carboxylic acid hemihydrate obtained in Example 1.

[6] = Moisture sorption and desorption behavior; format: physicochemical; conditions: atmospheric pressure type automatic water vapor adsorption device; FIG. 5
Source text: Moisture sorption and desorption behavior was examined with an atmospheric pressure type automatic water vapor adsorption device for 7-[(7S)-7-amino-7-methyl-5-azaspiro[2.4]heptan-5-yl]-6-fluoro-1-[(1R,2S)-2-fluorocyclopropyl]-8-methoxy-1,4-dihydro-4-oxoquinoline-3-carboxylic acid hemihydrate obtained in Example 1.

## O=C(O)c1cn(C2CC2)c2cc(N3CCNCC3)c(F)cc2c1=O [CPFX, ciprofloxacin]
P. aeruginosa, 32121
  MIC: 0.025 µg/mL (≈ 0.0754 µM)
S. marscecens, 10100
  MIC: 0.025 µg/mL (≈ 0.0754 µM)
S. epidermidis, 56500
  MIC: 0.2 µg/mL (≈ 0.604 µM)
S. aureus, 209P
  MIC: 0.1 µg/mL (≈ 0.302 µM)
P. vulgaris, 08601
  MIC: ≤ 0.003 µg/mL
S. aureus, 87037
  MIC: > 6.25 µg/mL
S. pneumoniae, J24
  MIC: 0.39 µg/mL (≈ 1.18 µM)
E. faecalis, ATCC 19433
  MIC: 0.78 µg/mL (≈ 2.35 µM)
P. aeruginosa, 32104
  MIC: 0.05 µg/mL (≈ 0.151 µM)
E. coli NIHJ
  MIC: ≤ 0.003 µg/mL

## COc1c(N2CCNC(C)C2)c(F)cc2c(=O)c(C(=O)O)cn(C3CC3)c12 (centres unmarked) [GTFX, gatifloxacin]
P. aeruginosa, 32121
  MIC: 0.1 µg/mL (≈ 0.266 µM)
S. marscecens, 10100
  MIC: 0.1 µg/mL (≈ 0.266 µM)
S. epidermidis, 56500
  MIC: 0.2 µg/mL (≈ 0.533 µM)
S. aureus, 209P
  MIC: 0.05 µg/mL (≈ 0.133 µM)
P. vulgaris, 08601
  MIC: 0.006 µg/mL (≈ 0.016 µM)
S. aureus, 87037
  MIC: 1.56 µg/mL (≈ 4.16 µM)
S. pneumoniae, J24
  MIC: 0.2 µg/mL (≈ 0.533 µM)
E. faecalis, ATCC 19433
  MIC: 0.39 µg/mL (≈ 1.04 µM)
P. aeruginosa, 32104
  MIC: 0.2 µg/mL (≈ 0.533 µM)
E. coli NIHJ
  MIC: 0.006 µg/mL (≈ 0.016 µM)

## COc1c(N2CC3(CC3)[C@](C)(N)C2)c(F)cc2c(=O)c(C(=O)O)cn([C@@H]3C[C@@H]3F)c12 [Hemihydrate, 7-[(7S)-7-Amino-7-methyl-5-azaspiro[2.4]heptan-5-yl]-6-fluoro-1-[(1R,2S)-2-fluorocyclopropyl]-8-methoxy-1,4-dihydro-4-oxoquinoline-3-carboxylic acid hemihydrate]
P. aeruginosa, 32121
  MIC: 0.2 µg/mL
S. marscecens, 10100
  MIC: 0.1 µg/mL
[1]
  Moisture sorption and desorption after thermal dehydration: rehydrated rapidly after being dehydrated
E. coli E77156 strain
  Bacterial count in the bladder: statistically significant decrease in bacterial count
S. epidermidis, 56500
  MIC: 0.1 µg/mL
S. aureus, 209P
  MIC: 0.025 µg/mL
P. vulgaris, 08601
  MIC: 0.025 µg/mL
[2]; 0% RH
  Weight Change (%): 0.00%
[2]; 0, 52 or 93% relative humidity, powder X-ray diffraction and thermal analysis
  Crystalline form after storage: the crystalline form did not change
[2]; 52% RH
  Weight Change (%): 0.43%
[2]; 93% RH
  Weight Change (%): 0.61%
[3]; photo irradiation condition
  Observation under photo irradiation condition: color change and some decrease in remaining ratio
[3]; wet heat (40° C., 75% RH) and dry heat (50° C., 0% RH), 2 weeks
  Content under wet heat and dry heat condition: stable and its content was not decreased
[4]; H37RV, strain H37Rv
  MIC: 0.03 µg/mL
[4]; strain Kurono
  MIC: 0.03 µg/mL
[4]; strain Ravenel
  MIC: 0.03 µg/mL
[4]; strain TB-s 2
  MIC: 0.06 µg/mL
[4]; strain TB-s 3
  MIC: 0.06 µg/mL
[4]; strain TB-s 4
  MIC: 0.06 µg/mL
[4]; strain TB-s 5
  MIC: 0.06 µg/mL
[4]; strain TB-s 6
  MIC: 0.06 µg/mL
[4]; strain TB-s 7
  MIC: 0.06 µg/mL
[4]; strain TB-s 8
  MIC: 0.03 µg/mL
[4]; strain TB-s 9
  MIC: 0.06 µg/mL
[4]; strain TB-s 10
  MIC: 0.03 µg/mL
[4]; strain TB-s 11
  MIC: 0.06 µg/mL
[4]; strain TB-s 12
  MIC: 0.125 µg/mL
[4]; strain TB-s 13
  MIC: 0.06 µg/mL
[4]; strain TB-s 14
  MIC: 0.06 µg/mL
[4]; strain TB-s 15
  MIC: 0.06 µg/mL
[4]; strain TB-s 16
  MIC: 0.06 µg/mL
[4]; strain TB-s 17
  MIC: 0.06 µg/mL
[4]; strain TB-s 18
  MIC: 0.06 µg/mL
[4]; strain TB-s 19
  MIC: 0.06 µg/mL
[4]; strain TB-s 20
  MIC: 0.06 µg/mL
[4]; strain TB-s 21
  MIC: 0.06 µg/mL
[4]; strain TB-s 22
  MIC: 0.03 µg/mL
S. aureus, 87037
  MIC: 0.78 µg/mL
S. pneumoniae, J24
  MIC: 0.1 µg/mL
[5]
  Crystalline form after thermal dehydration: had its crystalline state even after being dehydrated
E. faecalis, ATCC 19433
  MIC: 0.2 µg/mL
[6]
  Weight change as humidity changes: ≤ 1%
P. aeruginosa, 32104
  MIC: 0.39 µg/mL
E. coli NIHJ
  MIC: 0.025 µg/mL

## C[C@H]1COc2c(N3CCN(C)CC3)c(F)cc3c(=O)c(C(=O)O)cn1c23 [LVFX, levofloxacin]
P. aeruginosa, 32121
  MIC: 0.1 µg/mL (≈ 0.277 µM)
S. marscecens, 10100
  MIC: 0.1 µg/mL (≈ 0.277 µM)
S. epidermidis, 56500
  MIC: 0.39 µg/mL (≈ 1.08 µM)
S. aureus, 209P
  MIC: 0.2 µg/mL (≈ 0.553 µM)
P. vulgaris, 08601
  MIC: 0.012 µg/mL (≈ 0.0332 µM)
S. aureus, 87037
  MIC: > 6.25 µg/mL
S. pneumoniae, J24
  MIC: 0.78 µg/mL (≈ 2.16 µM)
E. faecalis, ATCC 19433
  MIC: 0.78 µg/mL (≈ 2.16 µM)
P. aeruginosa, 32104
  MIC: 0.2 µg/mL (≈ 0.553 µM)
E. coli NIHJ
  MIC: 0.012 µg/mL (≈ 0.0332 µM)

## CO[C@H]1/C=C/O[C@@]2(C)Oc3c(C)c(O)c4c(O)c(c(/C=N/N5CCN(C)CC5)c(O)c4c3C2=O)NC(=O)/C(C)=C\C=C\[C@H](C)[C@H](O)[C@@H](C)[C@@H](O)[C@@H](C)[C@H](OC(C)=O)[C@@H]1C [RFP, rifampicin]
[4]; H37RV, strain H37Rv
  MIC: 0.125 µg/mL (≈ 0.152 µM)
[4]; strain Kurono
  MIC: 0.06 µg/mL (≈ 0.0729 µM)
[4]; strain Ravenel
  MIC: 0.125 µg/mL (≈ 0.152 µM)
[4]; strain TB-s 2
  MIC: 0.03 µg/mL (≈ 0.0365 µM)
[4]; strain TB-s 3
  MIC: 0.125 µg/mL (≈ 0.152 µM)
[4]; strain TB-s 4
  MIC: 0.06 µg/mL (≈ 0.0729 µM)
[4]; strain TB-s 5
  MIC: 0.06 µg/mL (≈ 0.0729 µM)
[4]; strain TB-s 6
  MIC: 0.125 µg/mL (≈ 0.152 µM)
[4]; strain TB-s 7
  MIC: 0.06 µg/mL (≈ 0.0729 µM)
[4]; strain TB-s 8
  MIC: 0.015 µg/mL (≈ 0.0182 µM)
[4]; strain TB-s 9
  MIC: 0.06 µg/mL (≈ 0.0729 µM)
[4]; strain TB-s 10
  MIC: 0.06 µg/mL (≈ 0.0729 µM)
[4]; strain TB-s 11
  MIC: 0.06 µg/mL (≈ 0.0729 µM)
[4]; strain TB-s 12
  MIC: 0.125 µg/mL (≈ 0.152 µM)
[4]; strain TB-s 13
  MIC: 0.06 µg/mL (≈ 0.0729 µM)
[4]; strain TB-s 14
  MIC: 0.03 µg/mL (≈ 0.0365 µM)
[4]; strain TB-s 15
  MIC: 0.06 µg/mL (≈ 0.0729 µM)
[4]; strain TB-s 16
  MIC: 0.06 µg/mL (≈ 0.0729 µM)
[4]; strain TB-s 17
  MIC: 0.06 µg/mL (≈ 0.0729 µM)
[4]; strain TB-s 18
  MIC: 0.03 µg/mL (≈ 0.0365 µM)
[4]; strain TB-s 19
  MIC: 0.125 µg/mL (≈ 0.152 µM)
[4]; strain TB-s 20
  MIC: 0.25 µg/mL (≈ 0.304 µM)
[4]; strain TB-s 21
  MIC: 0.03 µg/mL (≈ 0.0365 µM)
[4]; strain TB-s 22
  MIC: 0.015 µg/mL (≈ 0.0182 µM)
